Laboratory results reported in patent publication US20250018014A1, “METHOD FOR TREATING AND/OR PREVENTING REGNASE-1-RELATED DISEASE” (OSAKA UNIVERSITY, priority 2018, published 2025).
Where two headings read alike, the source gives them in different places. Residues, ends and D or L forms follow the SMILES beside them.

Legend:
[1] = target: T1, FL_Reg1 (full-length human Regnase-1) phosphorylation by IKKβ (Homo sapiens, UniProt Q5D1E8); test: Regnase-1 phosphorylation inhibition by compounds (AlphaScreen), IKKβ, full-length Regnase-1; type: biochemical
T1 construct: made in house; host or cells: Expi293 cells
T1 sequence (Q5D1E8 1-599): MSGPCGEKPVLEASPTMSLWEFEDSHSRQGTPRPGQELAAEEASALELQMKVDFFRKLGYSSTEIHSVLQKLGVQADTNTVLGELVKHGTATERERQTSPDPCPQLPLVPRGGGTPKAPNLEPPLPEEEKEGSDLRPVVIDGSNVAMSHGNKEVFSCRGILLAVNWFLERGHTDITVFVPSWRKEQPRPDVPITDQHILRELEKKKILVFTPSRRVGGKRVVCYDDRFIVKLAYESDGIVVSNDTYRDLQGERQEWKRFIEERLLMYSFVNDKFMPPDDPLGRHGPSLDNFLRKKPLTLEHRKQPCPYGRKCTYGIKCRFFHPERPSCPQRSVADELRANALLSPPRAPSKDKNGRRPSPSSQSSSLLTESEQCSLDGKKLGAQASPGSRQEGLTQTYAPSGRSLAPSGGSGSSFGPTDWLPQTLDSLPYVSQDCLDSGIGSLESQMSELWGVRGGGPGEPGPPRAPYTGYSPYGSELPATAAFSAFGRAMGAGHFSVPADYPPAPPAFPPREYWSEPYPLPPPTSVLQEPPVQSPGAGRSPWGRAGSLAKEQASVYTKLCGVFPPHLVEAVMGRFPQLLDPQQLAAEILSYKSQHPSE
Text: The full-length sequence of human Regnase-1 (UniProt ID: Q5D1E8) was used to prepare a construct having a FLAG tag on the N-terminal side and a recognition sequence for biotin ligase BirA on the C-terminal side (FL_Reg1) as a target protein. The above-mentioned Regnase-1 was expressed in mammalian Expi293 cells, purified with FLAG M2 agarose, and isolated by gel filtration chromatography. When biotinylation was required, methods from nonpatent documents (BMC biotechnology, 2008,8,41; and Protein Science, 1999,8,921-929) were used. […]
Using Kinase assay buffer III (manufactured by SignalChem) supplemented with 2 mM DTT, 100 μM sodium vanadate, and 2 mM manganese chloride, kinase (IKKβ (manufactured by SignalChem) or TBK1 (manufactured by SignalChem)) and Regnase-1 were reacted in the presence of 10 μM ATP at room temperature for 2 hours to perform a phosphorylation reaction.
Phosphorylated Regnase-1 was detected by the AlphaScreen system. After each of the above-mentioned phosphorylated Regnase-1 antibodies was added and reacted at room temperature for one hour, anti-FLAG AlphaLISA Acceptor Beads (manufactured by PerkinElmer) and Protein A AlphaScreen Donor Beads (manufactured by PerkinElmer) were added, and EnVision (manufactured by PerkinElmer) was used to measure the excited luminescence. As a result, phosphorylated Regnase-1 produced by the phosphorylation reaction by kinase was specifically detected, and signals were confirmed to be enhanced in a manner dependent on Regnase-1 and kinase concentrations (FIG. 24).
After mixing 2 nM of the above-mentioned Regnase-1 and the compound, phosphorylated Regnase-1 produced by the phosphorylation reaction was detected by the AlphaScreen system. As the results, the inhibition rate was calculated from the signals obtained when adding the compound at each concentration, by defining the signal obtained with Regnase-1 alone to be 100% inhibition rate, and the signal obtained when the same amount of solvent (DMSO) is added in place of the compound as 0% inhibition rate. The 50% inhibition concentration (μM) was calculated from the obtained dose response curve (Table 11).

[2] = target: T2, binding between TBK1 and full-length Regnase-1 (FL_Reg1) (Homo sapiens, UniProt Q5D1E8); test: Inhibition of kinase-Regnase-1 binding by the compounds (AlphaScreen), TBK1
T2 construct: made in house; host or cells: Expi293 cells
T2 sequence (Q5D1E8 1-599): T1 sequence (Q5D1E8 1-599)
Experimental: (§1) As a target protein, a construct having a FLAG tag on the N-terminal side and a recognition sequence for biotin ligase BirA on the C-terminal side of the full-length sequence of human Regnase-1 (UniProt ID: Q5D1E8) was prepared (FL_Reg1). The above-mentioned Regnase-1 was expressed in mammalian Expi293 cells, purified with FLAG M2 agarose, and isolated by gel filtration chromatography. When biotinylation was required, methods from nonpatent documents (BMC biotechnology, 2008,8,41; and Protein Science, 1999,8,921-929) were used.
(§2) After mixing 2.5 nM of the above-mentioned Regnase-1 and the compound, 2.5 nM of IKKβ or TBK1 was added and reacted at room temperature for two hours. Then, Anti FLAG AlphaLISA Acceptor Beads (manufactured by PerkinElmer) and Glutathione-coated AlphaScreen Donor Beads (manufactured by PerkinElmer) were added, and excited luminescence was measured using En Vision (manufactured by PerkinElmer). As the results, the inhibition rate from the signals obtained when adding the compound at each concentration were calculated, by defining the signal obtained with Regnase-1 alone to be 100% inhibition rate, and the signal obtained when the same amount of solvent (DMSO) is added in place of the compound as 0% inhibition rate. The 50% inhibition concentration (μM) was calculated from the obtained dose response curve (Table 12).

[3] = target: T3, binding between IKKβ and full-length Regnase-1 (FL_Reg1) (Homo sapiens, UniProt Q5D1E8); test: Inhibition of kinase-Regnase-1 binding by the compounds (AlphaScreen), IKKβ
T3 construct: made in house; host or cells: Expi293 cells
T3 sequence (Q5D1E8 1-599): T1 sequence (Q5D1E8 1-599)
Experimental: as §1, §2

[4] = Table 14, phosphorylation by IKKβ, read-out: Phosphorylation inhibition FL_Reg1, 50% inhibition concentration (IKKβ)
[5] = Table 13, binding between TBK1 and Regnase-1, read-out: Binding inhibition FL_Reg1, 50% inhibition concentration (TBK1)
[6] = Table 14, binding between IKKβ and Regnase-1, read-out: Binding inhibition FL_Reg1, 50% inhibition concentration (IKKβ)
[7] = Table 11, 2 nM Regnase-1, AlphaScreen, read-out: 50% inhibition concentration, Regnase-1 phosphorylation, FL_Reg1, IKKβ
[8] = Table 12, 2.5 nM Regnase-1, 2.5 nM TBK1, AlphaScreen, read-out: 50% inhibition concentration, binding between Regnase-1 and TBK1, FL_Reg1
[9] = Table 12, 2.5 nM Regnase-1, 2.5 nM IKKβ, AlphaScreen, read-out: 50% inhibition concentration, binding between Regnase-1 and IKKβ, FL_Reg1

| IC50 [1, 4] | IC50 [2, 5] | IC50 [3, 6] | IC50 [1, 7] | IC50 [2, 8] | IC50 [3, 9] | SMILES |
| --- | --- | --- | --- | --- | --- | --- |
| 15 µM | 11.4 µM | 26.8 µM |  |  |  | CC[C@H](C)[C@@H]1NC(=O)[C@H](CCCNC(=N)N)NC(=O)[C@H](Cc2ccc(O)cc2)NC(=O)[C@H](Cc2c[nH]c3ccccc23)NC(=O)[C@H](CO)NC(=O)[C@H](CC(N)=O)NC(=O)[C@H](C)N(C)C(=O)C[C@@H](C(=O)N2CCCC2)NC(=O)[C@H](CC(C)C)NC(=O)CNC(=O)[C@H](Cc2c[nH]c3ccccc23)NC1=O [PP22] (HELM PEPTIDE1{[meA].N.S.W.Y.R.I.W.G.L.D.[C1CCN([*:1])C1]}$PEPTIDE1,PEPTIDE1,1:R1-11:R3$$$V2.0) |
| 6.8 µM | > 62.1 µM | > 62.1 µM |  |  |  | CC[C@H](C)[C@@H]1NC(=O)[C@H](Cc2c[nH]c3ccccc23)NC(=O)[C@H](CCC(N)=O)NC(=O)[C@H](Cc2ccc(O)cc2)NC(=O)[C@H](C(C)C)NC(=O)[C@H](C)NC(=O)[C@H](Cc2ccc(O)cc2)NC(=O)[C@H](CCCNC(=N)N)NC(=O)[C@H](C)N(C)C(=O)C[C@@H](C(=O)N2CCCC2)NC(=O)[C@@H]2CCCN2C(=O)[C@H](Cc2ccc(O)cc2)NC1=O [PP12] (HELM PEPTIDE1{[meA].R.Y.A.V.Y.Q.W.I.Y.P.D.[C1CCN([*:1])C1]}$PEPTIDE1,PEPTIDE1,1:R1-12:R3$$$V2.0) |
|  | > 62.1 µM | > 62.1 µM | 28.1 µM | > 62.1 µM | > 62.1 µM | CC(C)[C@@H]1NC(=O)[C@H](CCCCN)NC(=O)[C@H](Cc2ccc(O)cc2)NC(=O)[C@H](Cc2c[nH]c3ccccc23)NC(=O)[C@H](CO)NC(=O)[C@H]([C@@H](C)O)NC(=O)[C@H](C)N(C)C(=O)C[C@@H](C(=O)N2CCCC2)NC(=O)[C@H](CCC(N)=O)NC(=O)CNC(=O)[C@H](Cc2c[nH]c3ccccc23)NC(=O)[C@H](CC(N)=O)NC1=O [PP1] (HELM PEPTIDE1{[meA].T.S.W.Y.K.V.N.W.G.Q.D.[C1CCN([*:1])C1]}$PEPTIDE1,PEPTIDE1,1:R1-12:R3$$$V2.0) |
| 0.5 µM | 9.8 µM | 11.4 µM |  |  |  | CC[C@H](C)[C@@H]1NC(=O)[C@H](CO)NC(=O)[C@H](CCCNC(=N)N)NC(=O)[C@H](Cc2ccc(O)cc2)NC(=O)[C@H](Cc2ccc(O)cc2)NC(=O)[C@H](Cc2c[nH]c3ccccc23)NC(=O)[C@H](CO)NC(=O)[C@H](CCC(N)=O)NC(=O)[C@H](Cc2ccc(O)cc2)NC(=O)[C@H](CC(N)=O)NC(=O)[C@H](C)N(C)C(=O)C[C@@H](C(=O)N2CCCC2)NC(=O)[C@H](Cc2c[nH]c3ccccc23)NC1=O [PP10] (HELM PEPTIDE1{[meA].N.Y.Q.S.W.Y.Y.R.S.I.W.D.[C1CCN([*:1])C1]}$PEPTIDE1,PEPTIDE1,1:R1-13:R3$$$V2.0) |
|  |  |  | 23.6 µM | 11.5 µM | 24 µM | CC[C@H](C)[C@@H]1NC(=O)[C@H](CC(N)=O)NC(=O)[C@H](Cc2ccc(O)cc2)NC(=O)[C@H](Cc2c[nH]c3ccccc23)NC(=O)[C@H](C)NC(=O)[C@H](CC(N)=O)NC(=O)[C@H](CO)NC(=O)[C@H](Cc2c[nH]cn2)NC(=O)[C@H](C)N(C)C(=O)C[C@@H](C(=O)N2CCCC2)NC(=O)[C@H](Cc2c[nH]c3ccccc23)NC1=O [PP5] (HELM PEPTIDE1{[meA].H.S.N.A.W.Y.N.I.W.D.[C1CCN([*:1])C1]}$PEPTIDE1,PEPTIDE1,1:R1-11:R3$$$V2.0) |
|  |  |  | 16.6 µM | 15.5 µM | 35.8 µM | CC[C@H](C)[C@@H]1NC(=O)[C@H](CC(N)=O)NC(=O)[C@H](Cc2ccc(O)cc2)NC(=O)[C@H](Cc2c[nH]c3ccccc23)NC(=O)[C@H](CO)NC(=O)[C@H](CC(N)=O)NC(=O)[C@H](C)NC(=O)[C@H](Cc2ccc(O)cc2)NC(=O)CNC(=O)[C@H](C)N(C)C(=O)C[C@@H](C(=O)N2CCCC2)NC(=O)[C@H](Cc2c[nH]c3ccccc23)NC1=O [PP2] (HELM PEPTIDE1{[meA].G.Y.A.N.S.W.Y.N.I.W.D.[C1CCN([*:1])C1]}$PEPTIDE1,PEPTIDE1,1:R1-12:R3$$$V2.0) |

Second part, the compound before the results:

| SMILES | IC50 [1, 4] | IC50 [2, 5] | IC50 [3, 6] | IC50 [1, 7] | IC50 [2, 8] | IC50 [3, 9] |
| --- | --- | --- | --- | --- | --- | --- |
| CC[C@H](C)[C@@H]1NC(=O)[C@H](Cc2c[nH]c3ccccc23)NC(=O)[C@H](CCCNC(=N)N)NC(=O)[C@H](Cc2ccccc2)NC(=O)[C@H](CCC(N)=O)NC(=O)[C@H](C)NC(=O)[C@H](Cc2ccccc2)NC(=O)[C@H](CCCCN)NC(=O)[C@H](C)N(C)C(=O)C[C@@H](C(=O)N2CCCC2)NC(=O)[C@@H]2CCCN2C(=O)[C@H](Cc2ccc(O)cc2)NC1=O [PP11] (HELM PEPTIDE1{[meA].K.F.A.Q.F.R.W.I.Y.P.D.[C1CCN([*:1])C1]}$PEPTIDE1,PEPTIDE1,1:R1-12:R3$$$V2.0) | 22.3 µM | 60.9 µM | > 62.1 µM |  |  |  |
| CC[C@H](C)[C@@H]1NC(=O)[C@H](CC(N)=O)NC(=O)[C@H]([C@@H](C)CC)NC(=O)[C@H](Cc2ccc(O)cc2)NC(=O)[C@H](Cc2c[nH]c3ccccc23)NC(=O)[C@H](CO)NC(=O)[C@H](CC(N)=O)NC(=O)[C@H](C)N(C)C(=O)C[C@@H](C(=O)N2CCCC2)NC(=O)[C@H](Cc2c[nH]cn2)NC(=O)CNC(=O)[C@H](Cc2c[nH]c3ccccc23)NC1=O [PP15] (HELM PEPTIDE1{[meA].N.S.W.Y.I.N.I.W.G.H.D.[C1CCN([*:1])C1]}$PEPTIDE1,PEPTIDE1,1:R1-12:R3$$$V2.0) | 5.6 µM | 13.7 µM | 33.7 µM |  |  |  |
| CC[C@H](C)[C@@H]1NC(=O)[C@H](CC(=O)O)NC(=O)[C@H](C)N(C)C(=O)C[C@@H](C(=O)N2CCCC2)NC(=O)[C@H](Cc2c[nH]c3ccccc23)NC(=O)[C@H](CC(=O)O)NC(=O)[C@H](Cc2c[nH]c3ccccc23)NC(=O)[C@H](Cc2ccc(O)cc2)NC(=O)[C@H](CC(=O)O)NC(=O)[C@H](Cc2ccccc2)NC(=O)[C@H](Cc2c[nH]c3ccccc23)NC1=O [PP17] (HELM PEPTIDE1{[meA].D.I.W.F.D.Y.W.D.W.D.[C1CCN([*:1])C1]}$PEPTIDE1,PEPTIDE1,1:R1-11:R3$$$V2.0) | 0.5 µM | < 0.06 µM | < 0.06 µM |  |  |  |
| CC[C@H](C)[C@@H]1NC(=O)[C@H](CCCCN)NC(=O)[C@H](Cc2ccccc2)NC(=O)[C@H](Cc2c[nH]c3ccccc23)NC(=O)[C@H](CO)NC(=O)[C@H](CO)NC(=O)[C@H](CC(N)=O)NC(=O)[C@@H]2CCCN2C(=O)[C@@H](C)N(C)C(=O)C[C@@H](C(=O)N2CCCC2)NC(=O)[C@H](Cc2c[nH]c3ccccc23)NC1=O [PP6] (HELM PEPTIDE1{[C[C@H](C(=O)[*:2])N(C)[*:1]].P.N.S.S.W.F.K.I.W.D.[C1CCN([*:1])C1]}$PEPTIDE1,PEPTIDE1,1:R1-11:R3$$$V2.0) |  |  |  | 17 µM | 19.2 µM | 42.1 µM |
